Positions of bridges follow the written chain, without caps; N, C: chain ends. No end group written: not given here.
Assays:
[1] = system: Human umbilical artery vascular smooth muscle; assay: Vascular muscular thin film (vMTF) contractility assay, films adhered to PTFE coated posts; format: cell-based
Protocol: Human umbilical artery vascular smooth muscle was seeded on thin films at 300 cells/mm^2 in complete M199 medium (M199 supplemented with 10% fetal bovine serum (FBS), penicillin, streptomycin, L-glutamine, glucose and vitamin B12). The tissue was cultured in complete M199 for 48 hours, with a single media change at 24 hours. After 48 hours, the cells were serum starved for an additional 48 hours (M199 supplemented with penicillin, streptomycin, L-glutamine, glucose and vitamin B12, but no FBS).
Muscle thin films were transferred to fresh Tyrode's solution in the testing dish (FIG. 1), which is maintained at 37° C. by a peltier heating system. Films were adhered to Teflon coated posts (FIG. 3) by moving them into close contact using tweezers. The films were imaged using a stereomicroscope outfitted with fluorescent imaging capability. Both brightfield and fluorescent images were captured every thirty seconds. In the experiment shown in FIG. 4, four films were treated with 50 nM endothelin-1 followed by 100 μM HA-1077 (fasudil).
Quantification and analysis of thin film motion was performed using ImageJ (NIH) and MATLAB software. Thresholded fluorescent images (FIG. 4 B) were fit to circles whose radii of curvature could be measured (FIG. 4C). Using elasticity theory, the contraction stress necessary to induce the measured changes in curvature were calculated (FIG. 4D).
Human umbilical artery VSMCs were engineered as anisotropic monolayers aligned parallel to the long axis of the MTF. The vMTFs were adhered to PTFE coated posts via hydrophobic interaction with the PDMS. This arrangement allowed multiple vMTFs to be viewed concurrently. Here, eight vMTFs were tested using this assay. The fluorosphere doped PDMS could be viewed using fluorescent stereomicroscopy. In this arrangement, the films are easily approximated as circular arcs.
The vMTFs were treated with the endothelium-produced vasoconstrictor endothelin-1 followed by the rho-kinase inhibitor HA-1077, in order to calculate all of the relevant stress states of arterial muscle. […] This value represents the resting tension of the tissue. […] The HA-1077 dosage is sufficient to inhibit all myosin light chain phosphorylation, so this value represents the residual stress, or the stress generated by the cytoskeletal elements not involved in the contractile apparatus, but which remains after all other loads are removed.

[2] = system: vascular smooth muscle cells; assay: Horizontal muscular thin film (hMTF) contractility assay with vascular smooth muscle cells; format: cell-based
Protocol: FIG. 12 contrasts the use of fluorescent microscopy and the use of brightfield stereo microscopy of vascular smooth muscle (VSM) horizontal MTFs during an assay of the invention as described in Example 5. The top row depicts fluorescent microscopy photographs of VSM horizontal MTFs comprising fluorescent beads embedded in the PDMS film. […] (A) Photographs taken 5 minutes after the start of the experiment, the films are slightly bent up from the glass due to the initial contraction of VSM. (B) Photographs taken 20 minutes after addition of the vasoconstrictor (Endothilin-1), which causes the VSM to contract and the films to bend up from the glass. […] Actuation and observation of multiple MTFs was carried out in a physiologic solution (e.g., normal Tyrodes solution). The horizontal […]) fabricated with vascular smooth muscle cells in the presence of fluorescent beads were treated with the endothelium-produced vasoconstrictor endothelin-1 (ET-1) followed by the rho-kinase inhibitor HA-1077. […] Quantification and analysis of thin film motion was performed using ImageJ (NIH) and MATLAB software. From the thresholded fluorescent images the length of the projection of the film on the horizontal plane was tracked throughout the contraction and the radius of curvature calculated. Using elasticity theory, the contraction stress necessary to induce the measured changes in curvature were calculated.

O=S(=O)(c1cccc2cnccc12)N1CCCNCC1 [HA-1077, fasudil]
change in radius of curvature of vMTFs ([1]; 100 μM HA-1077 following ET-1): rapid increase in radius of curvature | stress after inhibition of contraction (residual stress) ([1]; treatment with 100 μM HA-1077 following 50 nM ET-1): 3.1±0.8 kPa | change in radius of curvature of hMTFs ([2]; 100 mM HA-1077 following ET-1): rapid increase in radius of curvature | effect on VSM horizontal MTFs (FIG. 12C) ([2]; 30 minutes after addition of rho-kinase inhibitor, films lie flat on the glass): completely relax

endothelin-1 (CSCSSLMDKECVYFCHLDIIW; disulfide 1-15, 3-11; ends not checked; UniProt P05305 53-73, looked up) [ET-1, endothelium-produced vasoconstrictor]
change in radius of curvature of vMTFs ([1]; 50 nM ET-1): decrease in their radii of curvature | increase in cell generated stress ([1]; vMTFs stimulated with 50 nM ET-1 at time 0, basal stress 17.1±1.7 kPa): 5.06±0.75 kPa | change in radius of curvature of hMTFs ([2]; 50 nM ET-1 at time 0): decrease in their radii of curvature | effect on VSM horizontal MTFs (FIG. 12B) ([2]; 20 minutes after addition of the vasoconstrictor, films bend up from the glass): contract

Reference: patent publication US9719982B2, “Devices comprising muscle thin films and uses thereof in high throughput assays for determining contractile function” (President and Fellows of Harvard College, priority 2009, dated 2017)
